Measured values as given in PMC8655237 (Journal of Advanced Research, 2021).
Where two headings read alike, the source gives them in different places.

Assays:
MDA-MB-231 [1] = assay: NRU antiproliferative assay; type: cell-based; details: Homo sapiens, MDA-MB-231, 24 h, read-out: IC50 (NRU)
MDA-MB-231 [2] = assay: Cell cycle analysis by flow cytometry; type: cell-based, human; details: MDA-MB-231, 24 h
A549 = assay: NRU antiproliferative assay; type: cell-based; details: Homo sapiens, A549, 24 h, read-out: IC50 (NRU)
[3] = target: T1, Ornithine decarboxylase (ODC) (Homo sapiens, UniProt P11926); assay: ODC assay, cell-based; details: for IC50: IC50 ODC, cell based
T1 sequence (P11926 1-461): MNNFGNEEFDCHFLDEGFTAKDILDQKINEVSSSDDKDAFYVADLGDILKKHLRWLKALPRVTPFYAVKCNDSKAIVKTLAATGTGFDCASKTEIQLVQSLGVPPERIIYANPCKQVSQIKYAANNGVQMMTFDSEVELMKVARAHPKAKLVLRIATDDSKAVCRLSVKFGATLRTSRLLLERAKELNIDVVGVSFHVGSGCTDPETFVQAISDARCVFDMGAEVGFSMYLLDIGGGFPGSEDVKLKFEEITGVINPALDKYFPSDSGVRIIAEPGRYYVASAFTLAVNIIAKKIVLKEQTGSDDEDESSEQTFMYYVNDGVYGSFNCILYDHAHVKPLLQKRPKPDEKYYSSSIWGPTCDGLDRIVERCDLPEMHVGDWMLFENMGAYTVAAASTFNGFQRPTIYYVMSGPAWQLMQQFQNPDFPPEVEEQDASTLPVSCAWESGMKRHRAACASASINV

COX-2 mRNA = assay: Real-time qPCR expression analysis; type: cell-based, human; details: GAPDH internal control
FaDu = assay: Cell cycle analysis by flow cytometry; type: cell-based, human; details: 24 h
HEK-293 = assay: Cytotoxicity to normal cell line; type: cell-based, human; details: higher tested concentration (100 µM)
LOX-5 mRNA = assay: Real-time qPCR expression analysis; type: cell-based, human; details: GAPDH internal control
COX-2 = target: T2, COX-2 (Homo sapiens, UniProt P35354); assay: cell-based; details: IC50 COX-2, cell based
T2 sequence (P35354 18-604): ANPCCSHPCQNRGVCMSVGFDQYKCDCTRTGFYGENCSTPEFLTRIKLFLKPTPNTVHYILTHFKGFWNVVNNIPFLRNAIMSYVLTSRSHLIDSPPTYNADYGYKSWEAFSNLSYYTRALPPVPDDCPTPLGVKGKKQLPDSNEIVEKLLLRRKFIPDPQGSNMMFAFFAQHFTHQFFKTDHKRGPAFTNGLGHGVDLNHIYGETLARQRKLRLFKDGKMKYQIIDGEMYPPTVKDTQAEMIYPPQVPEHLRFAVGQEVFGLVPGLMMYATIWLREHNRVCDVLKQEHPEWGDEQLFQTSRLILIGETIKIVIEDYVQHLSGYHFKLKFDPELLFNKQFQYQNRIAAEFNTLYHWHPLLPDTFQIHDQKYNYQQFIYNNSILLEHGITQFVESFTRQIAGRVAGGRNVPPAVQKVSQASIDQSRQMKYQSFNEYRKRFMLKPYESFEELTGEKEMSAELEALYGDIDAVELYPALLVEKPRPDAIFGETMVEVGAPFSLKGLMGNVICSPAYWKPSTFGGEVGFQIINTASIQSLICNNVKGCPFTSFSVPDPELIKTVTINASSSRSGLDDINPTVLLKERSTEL

tubulin protein = tubulin protein (Sus scrofa, UniProt P02550+P02554); assay: Tubulin polymerization assay; type: biochemical; details: 100 μM
Sequence of tubulin protein (P02550 whole entry): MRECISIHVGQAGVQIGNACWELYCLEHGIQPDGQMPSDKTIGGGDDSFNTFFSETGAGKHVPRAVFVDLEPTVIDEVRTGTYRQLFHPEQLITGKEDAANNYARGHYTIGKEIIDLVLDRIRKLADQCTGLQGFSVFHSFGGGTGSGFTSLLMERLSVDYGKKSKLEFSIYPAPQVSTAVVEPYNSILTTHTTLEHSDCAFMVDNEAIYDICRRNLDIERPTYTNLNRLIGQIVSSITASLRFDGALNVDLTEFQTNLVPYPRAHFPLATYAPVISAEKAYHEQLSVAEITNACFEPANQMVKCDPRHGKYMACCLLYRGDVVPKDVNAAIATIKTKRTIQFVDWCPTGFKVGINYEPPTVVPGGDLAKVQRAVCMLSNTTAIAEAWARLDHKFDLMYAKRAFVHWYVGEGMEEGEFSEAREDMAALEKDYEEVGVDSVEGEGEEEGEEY
Sequence of tubulin protein (P02554 whole entry): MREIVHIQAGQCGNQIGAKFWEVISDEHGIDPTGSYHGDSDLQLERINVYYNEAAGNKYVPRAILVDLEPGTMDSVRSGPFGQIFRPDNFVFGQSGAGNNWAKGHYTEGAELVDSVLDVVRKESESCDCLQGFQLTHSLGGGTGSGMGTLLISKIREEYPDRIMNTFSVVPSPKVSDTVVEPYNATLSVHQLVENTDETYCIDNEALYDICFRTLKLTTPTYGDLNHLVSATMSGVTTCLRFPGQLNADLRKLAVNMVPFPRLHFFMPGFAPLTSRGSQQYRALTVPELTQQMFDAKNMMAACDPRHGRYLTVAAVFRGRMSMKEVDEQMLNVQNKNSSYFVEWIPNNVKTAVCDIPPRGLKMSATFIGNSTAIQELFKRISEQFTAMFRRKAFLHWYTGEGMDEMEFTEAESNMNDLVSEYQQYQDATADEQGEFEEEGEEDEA

hyaluronidase (HYAL) [4] = assay: Hyaluronidase assay, cell-free; type: biochemical; details: cell-free system
PC-3 = assay: SRB antiproliferative assay; type: cell-based; details: Homo sapiens, PC-3, 24 h, read-out: IC50 (SRB)
PI3K = PI3K quantification by ELISA in A431 cells; type: cell-based, human; details: A431, 100 µM, 24 h
AKT = AKT quantification by ELISA in A431 cells; type: cell-based, human; details: A431, 100 µM, 24 h
HDAC-6 = HDAC-6 quantification by ELISA in A431 cells; type: cell-based, human; details: A431, 100 µM, 24 h
Cathepsin D (CATD) = Cathepsin D (CATD) (Homo sapiens, UniProt P07339); assay: Cathepsin D assay, cell-based; details: IC50 CAT D
Sequence of Cathepsin D (CATD) (P07339 65-412): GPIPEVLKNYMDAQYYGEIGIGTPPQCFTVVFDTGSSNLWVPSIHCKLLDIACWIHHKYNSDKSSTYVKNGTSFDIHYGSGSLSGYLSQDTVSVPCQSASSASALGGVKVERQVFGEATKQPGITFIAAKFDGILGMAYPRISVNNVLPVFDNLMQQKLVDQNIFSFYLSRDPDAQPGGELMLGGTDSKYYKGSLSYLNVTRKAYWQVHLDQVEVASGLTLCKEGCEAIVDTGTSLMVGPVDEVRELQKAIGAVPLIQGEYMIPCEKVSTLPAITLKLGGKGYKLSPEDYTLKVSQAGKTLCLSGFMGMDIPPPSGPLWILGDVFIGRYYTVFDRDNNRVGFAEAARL

[5] = ref https://chem.nlm.nih.gov/chemidplus/rn/3623–51-6; cited from earlier work
A431 [6] = assay: NRU antiproliferative assay; type: cell-based; details: Homo sapiens, A-431, 24 h, read-out: IC50 (NRU)
[7] = system: Ornithine decarboxylase (ODC); assay: ODC assay, cell-free; type: biochemical; details: read-out: IC50 ODC; cell free (In vitro)
[8] = system: Ehrlich Ascites Carcinoma (EAC); assay: Ehrlich ascites carcinoma; type: in vivo, Swiss albino mice; details: for reduction of EAC tumor cells (tumor growth inhibition): day 1-9
A431 [9] = assay: Cell cycle analysis by flow cytometry; type: cell-based, human; details: A431, 24 h
LOX-5 = LOX-5 (Homo sapiens, UniProt P09917); assay: LOX-5 assay, cell-based; details: IC50 LOX-5, cell based, K562
Sequence of LOX-5 (P09917 whole entry): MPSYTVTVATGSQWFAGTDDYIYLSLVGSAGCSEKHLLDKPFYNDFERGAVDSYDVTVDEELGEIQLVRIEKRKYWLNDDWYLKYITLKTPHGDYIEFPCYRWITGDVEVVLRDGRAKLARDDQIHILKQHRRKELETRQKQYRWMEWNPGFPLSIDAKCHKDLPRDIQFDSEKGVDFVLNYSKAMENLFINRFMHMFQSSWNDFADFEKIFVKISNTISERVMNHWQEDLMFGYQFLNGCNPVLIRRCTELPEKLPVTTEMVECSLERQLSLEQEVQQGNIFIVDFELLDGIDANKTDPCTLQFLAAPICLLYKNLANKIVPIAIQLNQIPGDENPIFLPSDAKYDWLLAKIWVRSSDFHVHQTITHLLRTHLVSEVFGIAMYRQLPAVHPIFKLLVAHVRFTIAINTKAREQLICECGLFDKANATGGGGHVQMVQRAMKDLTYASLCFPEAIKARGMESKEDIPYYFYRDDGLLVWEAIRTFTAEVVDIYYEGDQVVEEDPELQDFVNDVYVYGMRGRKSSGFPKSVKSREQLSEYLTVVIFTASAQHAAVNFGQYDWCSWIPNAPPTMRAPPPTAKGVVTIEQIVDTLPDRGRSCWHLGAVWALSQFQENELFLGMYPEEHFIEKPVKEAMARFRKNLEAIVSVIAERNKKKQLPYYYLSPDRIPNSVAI

hyaluronidase (HYAL) [10] = assay: Hyaluronidase assay, cell-based; design: species or system human
HYAL mRNA = assay: Real-time qPCR expression analysis; type: cell-based, human; details: GAPDH internal control

In the case of CC(C)[C@@H]1CC[C@@H](C)C[C@@H]1O [neomenthol, (+)-Neomenthol], the IC50 (MDA-MB-231 [1]) is reported as 34.7 ± 9.96 µM, the “cell cycle phase arrested” value (MDA-MB-231 [2]) is reported as “arrests the S-phase” and the IC50 (A549) is reported as 48.1 ± 4.97 µM. For the same compound, the “percent inhibition of ODC” value ([3]; A549, PC-3, A431, and FaDu cell lines) was “below 50%”, the IC50 ([3]; K562) was 29.6 ± 2.54 µM and the IC50 ([3]; MDA-MB-231) was 57.2 ± 2.84 µM. The “COX-2 mRNA expression level” value (COX-2 mRNA; A431, with respect to control) was 1.34 fold change, the “COX-2 mRNA expression level” value (COX-2 mRNA; A549, with respect to control) was 1.09 fold change and the “COX-2 mRNA expression level” value (COX-2 mRNA; FaDu, with respect to control) was 1.38 fold change. The “COX-2 mRNA expression level” value (COX-2 mRNA; MDA-MB-231, with respect to control) was 1.16 fold change, the “COX-2 mRNA expression level” value (COX-2 mRNA; PC-3, with respect to control) was 1.19 fold change and the “cell cycle phase arrested” value (FaDu) was “G2/M phase”. The “cytotoxicity to HEK-293” value (HEK-293) was “non-cytotoxic”, the “LOX-5 mRNA expression level” value (LOX-5 mRNA; A431, with respect to control) was 1.25 fold change and the “LOX-5 mRNA expression level” value (LOX-5 mRNA; FaDu, with respect to control) was 1.26 fold change. For the same compound, the “LOX-5 mRNA expression level” value (LOX-5 mRNA; K562, with respect to control) was 1.10 fold change, the IC50 (COX-2; A431) was 39.1 ± 6.39 µM and the IC50 (COX-2; FaDu) was 87.2 ± 5.24 µM. For the same compound, the IC50 (COX-2; PC-3) was 62.2 ± 10.7 µM, the “effect on tubulin polymerization” value (tubulin protein) was “inhibit the polymerization of α and β tubulin” and the “inhibition of hyaluronidase enzyme activity” value (hyaluronidase (HYAL) [4]) was 24.9 ± 4.31%. For the same compound, the IC50 (PC-3) was 16.4 ± 3.87 µM, the “PI3K level (ng/mg of protein)” value (PI3K) was 0.006 ± 0.00021 ng/mg and the “AKT level (ng/mg of protein)” value (AKT) was 0.125 ± 0.004 ng/mg. The “HDAC-6 level (ng/mg of protein)” value (HDAC-6) was 0.104 ± 0.001 ng/mg, the IC50 (Cathepsin D (CATD); A549) was 62 ± 2.08 µM and the IC50 (Cathepsin D (CATD); FaDu) was 74.62 ± 0.21 µM. For the same compound, the IC50 (Cathepsin D (CATD); K562) was 57.5 ± 14 µM, the LD50 [5] was 4000 mg/kg and the IC50 (A431 [6]) was 18.5 ± 3.66 µM. For the same compound, the IC50 [7] was 20.2 ± 1.09 µM, the “reduction of EAC tumor cells (tumor growth inhibition)” value ([8]; 50 mg/kg bw i.p.) was 23.98% and the “survival rate higher compared to EAC harbored mice” value ([8]; 75 mg/kg body weight) was 17%. For the same compound, the “survival of EAC harbored mice (survived till)” value ([8]; 75 mg/kg body weight, untreated EAC mice died within 24 days) was 27 days, the “reduction of EAC tumor cells (tumor growth inhibition)” value ([8]; 75 mg/kg bw i.p.) was 58.84% and the “cell cycle phase arrested” value (A431 [9]) was “G2/M phase”. It also gave an IC50 (LOX-5) of 72.2 ± 2.19 µM, an IC50 (hyaluronidase (HYAL) [10]; read-out: IC50 HYAL, A431) of 12.81 ± 0.01 µM and an IC50 (hyaluronidase (HYAL) [10]; read-out: IC50 HYAL, A549) of 36.8 ± 5.65 µM. For the same compound, the “HYAL mRNA expression level” value (HYAL mRNA; A431, with respect to control) was 1.52 fold change, the “HYAL mRNA expression level” value (HYAL mRNA; FaDu, with respect to control) was 1.06 fold change and the “HYAL mRNA expression level” value (HYAL mRNA; PC-3, with respect to control) was 1.37 fold change.
